How the values were obtained:
[1] = system: Canis familiaris; assay: The ability of compound to prevent the emesis induced by apomorphine (0.1 mg/kg, iv) in dogs at the specified dosage of 2.0 mg/kg (1 N saline); Range is 1-2; assay type: functional, Canis lupus familiaris
[2] = system: Rattus norvegicus; assay: Tested for neuroleptic activity by measuring antagonism of d-amphetamine sulfate at intraperitoneal dosage of 5 mg/kg, after 1 hour in rat; Range is 10-32; assay type: functional; settings: ip
[3] = system: Rattus norvegicus; assay: Tested for neuroleptic activity by measuring antagonism of d-amphetamine sulfate at intraperitoneal dosage of 5 mg/kg, after 5 hours in rat; Range is 10-32; assay type: functional; settings: ip
[4] = system: Rattus norvegicus; assay: Tested for neuroleptic activity by measuring antagonism of d-amphetamine sulfate at intraperitoneal dosage of 5 mg/kg, after 1 hour in rat; Range is 0.1-0.32; assay type: functional; settings: ip
[5] = system: Rattus norvegicus; assay: Tested for neuroleptic activity by measuring antagonism of d-amphetamine sulfate at intraperitoneal dosage of 5 mg/kg, after 5 hours in rat; Range is 1.0-3.2; assay type: functional; settings: ip
[6] = system: Rattus norvegicus; assay: Tested for neuroleptic activity by measuring antagonism of d-amphetamine sulfate at intraperitoneal dosage of 5 mg/kg, after 24 hours in rat; assay type: functional; settings: ip
[7] = system: Rattus norvegicus; assay: Tested for neuroleptic activity by measuring antagonism of d-amphetamine sulfate at intraperitoneal dosage of 5 mg/kg, after 5 hours in rat; assay type: functional; settings: ip
[8] = system: Rattus norvegicus; assay: Tested for neuroleptic activity by measuring antagonism of d-amphetamine sulfate at intraperitoneal dosage of 5 mg/kg, after 1 hour in rat; Range is 32-56; assay type: functional; settings: ip
[9] = system: Rattus norvegicus; assay: Tested for neuroleptic activity by measuring antagonism of d-amphetamine sulfate at intraperitoneal dosage of 5 mg/kg, after 1 hour in rat; Range is 1.0-3.2; assay type: functional; settings: ip
[10] = system: Rattus norvegicus; assay: Tested for neuroleptic activity by measuring antagonism of d-amphetamine sulfate at intraperitoneal dosage of 5 mg/kg, after 5 hours in rat; Range is 3.2-10; assay type: functional; settings: ip
[11] = system: Rattus norvegicus; assay: Tested for neuroleptic activity by measuring antagonism of d-amphetamine sulfate at intraperitoneal dosage of 5 mg/kg, after 24 hours in rat; Range is 3.2-10; assay type: functional; settings: ip
[12] = system: Rattus norvegicus; assay: Tested for neuroleptic activity by measuring antagonism of d-amphetamine sulfate at intraperitoneal dosage of 5 mg/kg, after 1 hour in rat; Range is 3.2-10; assay type: functional; settings: ip
[13] = system: Canis familiaris; assay: The ability of compound to prevent the emesis induced by apomorphine (0.1 mg/kg, iv) in dogs at the specified dosage of 3.2 mg/kg (sesame oil); assay type: functional, Canis lupus familiaris
[14] = organism: Rattus norvegicus; assay: Inhibition of amphetamine induced stereotypy in rats; pretreated 1 hr before amphetamine.; assay type: functional
[15] = system: Canis familiaris; assay: The ability of compound to prevent the emesis induced by apomorphine (0.1 mg/kg, iv) in dogs at the specified dosage of 3.2 mg/kg (sesame oil); Range is 8-9; assay type: functional, Canis lupus familiaris
[16] = system: Rattus norvegicus; assay: Tested for neuroleptic activity by measuring antagonism of d-amphetamine sulfate at intraperitoneal dosage of 5 mg/kg, after 1 hour in rat; Range is 0.32-1.0; assay type: functional; settings: ip
[17] = system: Rattus norvegicus; assay: Tested for neuroleptic activity by measuring antagonism of d-amphetamine sulfate at intraperitoneal dosage of 5 mg/kg, after 5 hours in rat; Range is 0.32-1.0; assay type: functional; settings: ip

SMILES: CCCCCCC(=O)OC(CCCN1CCc2c(c3cc(F)ccc3n2-c2ccc(F)cc2)C1)c1ccc(F)cc1.Cl (stereo unspecified)
- Protection [1]: 1 days

SMILES: Cl.O=C(CCCN1CCc2c(c3cc(F)ccc3n2-c2ccc(F)cc2)C1)c1ccccc1
- ED50 [2]: 10 mg/kg
- ED50 [3]: 10 mg/kg

SMILES: Cl.OC(CCCN1CCc2c(c3cc(F)ccc3n2-c2ccc(F)cc2)C1)c1ccccc1F (stereo unspecified)
- ED50 [4]: 0.1 mg/kg
- ED50 [5]: 1 mg/kg
- ED50 [6]: > 3.2 mg/kg

SMILES: COc1ccc(-n2c3c(c4cc(F)ccc42)CN(CCCC(=O)c2ccc(F)cc2)CC3)cc1.Cl
- ED50 [2]: 10 mg/kg
- ED50 [7]: > 32 mg/kg

SMILES: Fc1ccc(-n2c3c(c4cc(F)ccc42)CNCC3)cc1
- ED50 [2]: 10 mg/kg

SMILES: CN1CCc2c(c3cc(Cl)ccc3n2C)C1.Cl
- ED50 [8]: 32 mg/kg

SMILES: Cl.O=C(CCCN1CCc2c(c3cc(F)ccc3n2-c2ccc(F)cc2)C1)c1cccc(F)c1
- ED50 [2]: 10 mg/kg
- ED50 [3]: 10 mg/kg
- ED50 [6]: > 32 mg/kg

SMILES: CN1CCc2c(c3cc(Cl)ccc3n2-c2ccc(F)cc2)C1.Cl
- ED50 [9]: 1 mg/kg
- ED50 [6]: > 10 mg/kg
- ED50 [10]: 3.2 mg/kg

SMILES: Cl.OC(CCCN1CCc2c(c3cc(F)ccc3n2-c2ccccc2)C1)c1ccc(F)cc1 (stereo unspecified)
- ED50 [9]: 1 mg/kg
- ED50 [5]: 1 mg/kg
- ED50 [11]: 3.2 mg/kg

SMILES: CN1CCc2c(c3cc(Cl)ccc3n2-c2ccccc2)C1.Cl
- ED50 [3]: 10 mg/kg
- ED50 [12]: 3.2 mg/kg
- ED50 [6]: > 32 mg/kg

SMILES: CCCCCCCCCCCCCCCCCC(=O)OC(CCCN1CCc2c(c3cc(F)ccc3n2-c2ccc(F)cc2)C1)c1ccc(F)cc1 (stereo unspecified)
- Protection [13]: 0 days

SMILES: Cn1c2c(c3cc(F)ccc31)CN(CCCC(O)c1ccc(F)cc1)CC2 (stereo unspecified)
- ED50 [2]: 10 mg/kg
- ED50 [3]: 10 mg/kg
- ED50 [6]: > 32 mg/kg

SMILES: Cl.OC(CCCN1CCc2c(c3cc(F)ccc3n2-c2cccc(C(F)(F)F)c2)C1)c1ccc(F)cc1 (stereo unspecified)
- ED50 [14]: > 32 mg/kg
- ED50 [7]: > 32 mg/kg

SMILES: CCOC(=O)N1CCc2c(c3cc(F)ccc3n2-c2ccc(F)cc2)C1
- ED50 [14]: > 32 mg/kg
- ED50 [7]: > 32 mg/kg
- ED50 [6]: > 32 mg/kg

SMILES: Cl.Cl.OC(CCCN1CCc2c(c3cc(F)ccc3n2-c2ccc(F)cc2)C1)c1cccnc1 (stereo unspecified)
- ED50 [14]: > 3.2 mg/kg
- ED50 [7]: > 3.2 mg/kg

SMILES: CCCCC(=O)OC(CCCN1CCc2c(c3cc(F)ccc3n2-c2ccc(F)cc2)C1)c1ccc(F)cc1.Cl (stereo unspecified)
- Protection [15]: 8 days

SMILES: O=C(CCCN1CCc2[nH]c3ccc(F)cc3c2C1)c1ccc(F)cc1
- ED50 [9]: 1 mg/kg
- ED50 [6]: > 32 mg/kg
- ED50 [10]: 3.2 mg/kg

SMILES: Cl.O=C(CCCN1CCc2c(c3cc(F)ccc3n2-c2ccc(F)cc2)C1)c1cccs1
- ED50 [2]: 10 mg/kg
- ED50 [7]: > 32 mg/kg

SMILES: Cl.OC(CCCN1CCc2c(c3cc(F)ccc3n2-c2ccc(F)cc2)C1)c1ccccc1 (stereo unspecified)
- ED50 [16]: 0.32 mg/kg
- ED50 [17]: 0.32 mg/kg
- ED50 [6]: > 3.2 mg/kg

SMILES: Cc1ccc(C(=O)CCCN2CCc3c(c4cc(F)ccc4n3-c3ccc(F)cc3)C2)cc1
- ED50 [14]: > 10 mg/kg
- ED50 [7]: > 10 mg/kg

SMILES: CC(=O)OC(CCCN1CCc2c(c3cc(F)ccc3n2-c2ccc(F)cc2)C1)c1ccc(F)cc1 (stereo unspecified)
- Protection [13]: 0 days

SMILES: COc1ccc2c(c1)c1c(n2-c2ccc(F)cc2)CCN(C)C1.Cl
- ED50 [14]: > 32 mg/kg
- ED50 [7]: > 32 mg/kg

SMILES: Cl.O=C(CCCN1CCc2c(c3cc(F)ccc3n2-c2cccc(C(F)(F)F)c2)C1)c1ccc(F)cc1
- ED50 [14]: > 32 mg/kg

SMILES: OC(CCN1CCc2c(c3cc(F)ccc3n2-c2ccc(F)cc2)C1)c1ccc(F)cc1 (stereo unspecified)
- ED50 [7]: > 10 mg/kg
- ED50 [12]: 3.2 mg/kg
- ED50 [6]: > 10 mg/kg

SMILES: Cl.O=C(CCCN1CCc2c(c3cc(F)ccc3n2-c2ccc(C(F)(F)F)cc2)C1)c1ccc(F)cc1
- ED50 [14]: > 32 mg/kg

SMILES: COc1ccc(-n2c3c(c4cc(F)ccc42)CN(CCCC(O)c2ccc(F)cc2)CC3)cc1.Cl (stereo unspecified)
- ED50 [14]: 1 mg/kg
- ED50 [7]: 3.2 mg/kg
- ED50 [6]: > 3.2 mg/kg

SMILES: Cl.OC(CCCN1CCc2c(c3cc(F)ccc3n2-c2ccccc2F)C1)c1ccc(F)cc1 (stereo unspecified)
- ED50 [16]: 0.32 mg/kg
- ED50 [5]: 1 mg/kg
- ED50 [6]: > 10 mg/kg

SMILES: COc1ccc2c(c1)c1c(n2-c2ccccc2)CCN(C)C1.Cl
- ED50 [14]: > 32 mg/kg
- ED50 [7]: > 32 mg/kg

SMILES: Fc1ccc(C(=CCCN2CCc3c(c4cc(F)ccc4n3-c3ccc(F)cc3)C2)c2ccc(F)cc2)cc1
- ED50 [14]: > 32 mg/kg
- ED50 [7]: > 32 mg/kg
- ED50 [6]: > 32 mg/kg

SMILES: Cl.Fc1ccc(/C=C/CCN2CCc3c(c4cc(F)ccc4n3-c3ccc(F)cc3)C2)cc1
- ED50 [5]: 1 mg/kg
- ED50 [12]: 3.2 mg/kg
- ED50 [6]: > 3.2 mg/kg
